Consider 27 compounds from patent US10800792B2, “Inhibitors of Bruton's tyrosine kinase and method of their use” (JANSSEN PHARMACEUTICA NV, priority 2015, dated 2020).

This assay addresses unphosphorylated-BTK kinase domain (UP-BTK), GST-tagged human BTK (389-659aa) (Homo sapiens (Human), UniProt Q06187). Briefly: BTK kinase Lanthascreen binding assay. As to conditions: unphosphorylated-BTK kinase domain, 50 nM Tracer 236, 60 minutes; pIC50 = negative log of the IC50 in molar. An outline of the steps: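 Compound binding to the unphosphorylated kinase domain was monitored by displacement of a fluorescently labelled tracer in a Lanthascreen format. Potency is given as pIC50, the negative log of the molar IC50.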
For orientation: TR-FRET usually uses a lanthanide donor and a delayed reading to cut background.

unphosphorylated-BTK kinase domain (UP-BTK), GST-tagged human BTK (389-659aa), sequence (Q06187 389-659): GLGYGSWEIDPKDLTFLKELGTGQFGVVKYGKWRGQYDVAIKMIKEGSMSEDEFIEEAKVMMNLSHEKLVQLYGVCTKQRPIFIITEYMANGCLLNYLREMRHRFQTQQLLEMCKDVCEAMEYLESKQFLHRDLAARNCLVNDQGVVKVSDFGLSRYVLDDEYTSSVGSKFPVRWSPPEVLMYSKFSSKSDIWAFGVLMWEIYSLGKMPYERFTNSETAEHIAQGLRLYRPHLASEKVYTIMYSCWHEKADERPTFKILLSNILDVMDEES

Consider `Cc1cc(Oc2ccccc2)ccc1N1C(=O)Nc2c(C(=O)NCCC3CCCN3C)sc3nccc1c23` (stereo not drawn) [Example 298, 5-(2-Methyl-4-phenoxyphenyl)-N-(2-(1-methylpyrrolidin-2-yl)ethyl)-4-oxo-4,5-dihydro-3H-1-thia-3,5,8-triazaacenaphthylene-2-carboxamide], for which the “BTK_I_binding pIC50” value was 6.1.

Take `C=CC(=O)N1CC[C@@H](NC(=O)c2sc3nccc4c3c2NC(=O)N4c2ccc(OC)cc2C)C1` [Example 299, (R)—N-(1-Acryloylpyrrolidin-3-yl)-5-(4-methoxy-2-methylphenyl)-4-oxo-4,5-dihydro-3H-1-thia-3,5,8-triazaacenaphthylene-2-carboxamide]: the “BTK_I_binding pIC50” value was 6.1.

Turning to `C=CC(=O)N1CC[C@@H](NC(=O)c2sc3nccc4c3c2NC(=O)N4c2ccccc2F)C1` [Example 301, (R)—N-(1-Acryloylpyrrolidin-3-yl)-5-(2-fluorophenyl)-4-oxo-4,5-dihydro-3H-1-thia-3,5,8-triazaacenaphthylene-2-carboxamide], the “BTK_I_binding pIC50” value is on record as 6.0.

Take `Cc1cc(Oc2ccc(F)cc2F)ccc1N1C(=O)Nc2c(C(=O)N[C@@H]3CCCN(C)C3)sc3nccc1c23` [Example 302, (R)-5-(4-(2,4-Difluorophenoxy)-2-methylphenyl)-N-(1-methylpiperidin-3-yl)-4-oxo-4,5-dihydro-3H-1-thia-3,5,8-triazaacenaphthylene-2-carboxamide]: the “BTK_I_binding pIC50” value worked out at 6.0.

In the case of `Cc1cc(Oc2ccccc2)c(F)cc1N1C(=O)Nc2c(C(=O)N[C@@H]3CCCN(C)C3)sc3nccc1c23` [Example 303, (R)-5-(5-Fluoro-2-methyl-4-phenoxyphenyl)-N-(1-methylpiperidin-3-yl)-4-oxo-4,5-dihydro-3H-1-thia-3,5,8-triazaacenaphthylene-2-carboxamide], the “BTK_I_binding pIC50” value came to 6.0.

Take `C=CC(=O)N1CC[C@@H](NC(=O)c2sc3nccc4c3c2NC(=O)N4c2ccc(C)cc2C)C1` [Example 304, (R)—N-(1-Acryloylpyrrolidin-3-yl)-5-(2,4-dimethylphenyl)-4-oxo-4,5-dihydro-3H-1-thia-3,5,8-triazaacenaphthylene-2-carboxamide]: the “BTK_I_binding pIC50” value is on record as 6.0.

Take `Cc1cc(Oc2ccccc2)c(F)cc1N1C(=O)Nc2c(C(=O)N[C@@H]3CCCOC3)sc3nccc1c23` [Example 305, (R)-5-(5-Fluoro-2-methyl-4-phenoxyphenyl)-4-oxo-N-(tetrahydro-2H-pyran-3-yl)-4,5-dihydro-3H-1-thia-3,5,8-triazaacenaphthylene-2-carboxamide]: the “BTK_I_binding pIC50” value was 6.0.

As to `Cc1cc(Oc2ccccn2)ccc1N1C(=O)Nc2c(C(=O)N[C@@H]3CCCN(C)C3)sc3nccc1c23` [Example 306, (R)-5-(2-Methyl-4-(pyridin-2-yloxy)phenyl)-N-(1-methylpiperidin-3-yl)-4-oxo-4,5-dihydro-3H-1-thia-3,5,8-triazaacenaphthylene-2-carboxamide], the “BTK_I_binding pIC50” value came to 6.0.

For `Cc1cc(Oc2ccccc2)c(F)cc1N1C(=O)Nc2c(C(=O)N[C@H]3CCCOC3)sc3nccc1c23` [Example 308, (S)-5-(5-Fluoro-2-methyl-4-phenoxyphenyl)-4-oxo-N-(tetrahydro-2H-pyran-3-yl)-4,5-dihydro-3H-1-thia-3,5,8-triazaacenaphthylene-2-carboxamide], the “BTK_I_binding pIC50” value is on record as 6.0.

As for `Cc1cc(Oc2ccccc2)ccc1N1C(=O)Nc2c(C(=O)N[C@H]3CCCCN(Cc4ccccc4)C3=O)sc3nccc1c23` [Example 309, (S)—N-(1-Benzyl-2-oxoazepan-3-yl)-5-(2-methyl-4-phenoxyphenyl)-4-oxo-4,5-dihydro-3H-1-thia-3,5,8-triazaacenaphthylene-2-carboxamide], the “BTK_I_binding pIC50” value is given as 6.0.

As for `Cc1cc(Oc2ccccc2)ccc1N1C(=O)Nc2c(C(=O)NC[C@@H]3CCCCN3)sc3nccc1c23` [Example 310, (S)-5-(2-Methyl-4-phenoxyphenyl)-4-oxo-N-(piperidin-2-ylmethyl)-4,5-dihydro-3H-1-thia-3,5,8-triazaacenaphthylene-2-carboxamide], the “BTK_I_binding pIC50” value is 6.0.

Take `C=CC(=O)N1CC[C@@H](NC(=O)c2sc3nccc4c3c2NC(=O)N4c2ccc(Oc3ccccc3)nn2)C1` [Example 311, (R)—N-(1-Acryloylpyrrolidin-3-yl)-4-oxo-5-(6-phenoxypyridazin-3-yl)-4,5-dihydro-3H-1-thia-3,5,8-triazaacenaphthylene-2-carboxamide]: the “BTK_I_binding pIC50” value is recorded as 5.9.

Take `CO[C@H]1C[C@@H](NC(=O)c2sc3nccc4c3c2NC(=O)N4c2ccc(Oc3ccccc3)cc2C)CN(C)C1` [Example 312, N-((3R,5S)-5-Methoxy-1-methylpiperidin-3-yl)-5-(2-methyl-4-phenoxyphenyl)-4-oxo-4,5-dihydro-3H-1-thia-3,5,8-triazaacenaphthylene-2-carboxamide]: the “BTK_I_binding pIC50” value was found to be 5.9.

Turning to `C=CC(=O)N1CC[C@@H](NC(=O)c2sc3nccc4c3c2NC(=O)N4c2ccccc2C)C1` [Example 314, (R)—N-(1-Acryloylpyrrolidin-3-yl)-4-oxo-5-(o-tolyl)-4,5-dihydro-3H-1-thia-3,5,8-triazaacenaphthylene-2-carboxamide], the “BTK_I_binding pIC50” value is on record as 5.9.

On to `Cc1cc(Oc2ccccc2)ccc1N1C(=O)Nc2c(C(=O)NCC(=O)N3CCOCC3)sc3nccc1c23` [Example 315, 5-(2-Methyl-4-phenoxyphenyl)-N-(2-morpholino-2-oxoethyl)-4-oxo-4,5-dihydro-3H-1-thia-3,5,8-triazaacenaphthylene-2-carboxamide], for which the “BTK_I_binding pIC50” value is given as 6.9.

`Cc1cc(Oc2ccccc2)cc(C)c1N1C(=O)Nc2c(C(=O)N[C@@H]3CCCN(C)C3)sc3nccc1c23` [Example 317, (R)-5-(2,6-Dimethyl-4-phenoxyphenyl)-N-(1-methylpiperidin-3-yl)-4-oxo-4,5-dihydro-3H-1-thia-3,5,8-triazaacenaphthylene-2-carboxamide]: the “BTK_I_binding pIC50” value turned out to be 5.8.

With `CCN1CCC[C@@H](NC(=O)c2sc3nccc4c3c2NC(=O)N4c2ccc(Oc3ccccc3C(C)C)cc2C)C1` [Example 320, (R)—N-(1-Ethylpiperidin-3-yl)-5-(4-(2-isopropylphenoxy)-2-methylphenyl)-4-oxo-4,5-dihydro-3H-1-thia-3,5,8-triazaacenaphthylene-2-carboxamide], the “BTK_I_binding pIC50” value was 6.7.

For the compound `Cc1cc(OC2CC2)ccc1N1C(=O)Nc2c(C(=O)N[C@@H]3CCCN(C)C3)sc3nccc1c23` [Example 322, (R)-5-(4-Cyclopropoxy-2-methylphenyl)-N-(1-methylpiperidin-3-yl)-4-oxo-4,5-dihydro-3H-1-thia-3,5,8-triazaacenaphthylene-2-carboxamide], the “BTK_I_binding pIC50” value is reported as 5.7.

Consider `C=CC(=O)N1CC[C@@H](NC(=O)c2sc3nccc4c3c2NC(=O)N4c2ccc(Oc3ccccc3)cc2C(F)(F)F)C1` [Example 324, (R)—N-(1-Acryloylpyrrolidin-3-yl)-4-oxo-5-(4-phenoxy-2-(trifluoromethyl)phenyl)-4,5-dihydro-3H-1-thia-3,5,8-triazaacenaphthylene-2-carboxamide], for which the “BTK_I_binding pIC50” value was 5.7.

Take `Cc1cc(Oc2ccccc2C(N)=O)ccc1N1C(=O)Nc2c(C(=O)N[C@@H]3CCCN(C)C3)sc3nccc1c23` [Example 326, (R)-5-(4-(2-Carbamoylphenoxy)-2-methylphenyl)-N-(1-methylpiperidin-3-yl)-4-oxo-4,5-dihydro-3H-1-thia-3,5,8-triazaacenaphthylene-2-carboxamide]: the “BTK_I_binding pIC50” value stood at 5.7.

Turning to `Cc1cnc2sc(C(=O)N[C@@H]3CCCNC3)c3c2c1N(c1ccc(Oc2ccccc2)cc1)C(=O)N3` [Example 328, (R)-6-Methyl-4-oxo-5-(4-phenoxyphenyl)-N-(piperidin-3-yl)-4,5-dihydro-3H-1-thia-3,5,8-triazaacenaphthylene-2-carboxamide], the “BTK_I_binding pIC50” value is 5.7.

For the compound `O=C(N[C@@H]1CCCNC1)c1sc2nccc3c2c1NC(=O)N3c1cc(Cl)cc(Cl)c1` [Example 330, (R)-5-(3,5-Dichlorophenyl)-4-oxo-N-(piperidin-3-yl)-4,5-dihydro-3H-1-thia-3,5,8-triazaacenaphthylene-2-carboxamide], the “BTK_I_binding pIC50” value was found to be 5.6.

In the case of `Cc1cc(Oc2ccccc2)ccc1N1C(=O)Nc2c(C(=O)N(C)[C@@H]3CCNC3)sc3nccc1c23` [Example 331, (R)—N-Methyl-5-(2-methyl-4-phenoxyphenyl)-4-oxo-N-(pyrrolidin-3-yl)-4,5-dihydro-3H-1-thia-3,5,8-triazaacenaphthylene-2-carboxamide], the “BTK_I_binding pIC50” value is 5.5.

In the case of `Cc1cc(OC(C)C)ccc1N1C(=O)Nc2c(C(=O)N[C@@H]3CCCN(C)C3)sc3nccc1c23` [Example 332, (R)-5-(4-Isopropoxy-2-methylphenyl)-N-(1-methylpiperidin-3-yl)-4-oxo-4,5-dihydro-3H-1-thia-3,5,8-triazaacenaphthylene-2-carboxamide], the “BTK_I_binding pIC50” value amounted to 5.5.

Consider `CCOc1ccc(N2C(=O)Nc3c(C(=O)N[C@@H]4CCCN(C)C4)sc4nccc2c34)c(C)c1` [Example 333, (R)-5-(4-Ethoxy-2-methylphenyl)-N-(1-methylpiperidin-3-yl)-4-oxo-4,5-dihydro-3H-1-thia-3,5,8-triazaacenaphthylene-2-carboxamide], for which the “BTK_I_binding pIC50” value was determined as 5.5.

`C=CC(=O)N1CCC[C@@H](NC(=O)c2sc3nccc4c3c2NC(=O)N4c2ccc(C(C)(C)C)cc2)C1` [Example 334, (R)—N-(1-Acryloylpiperidin-3-yl)-5-(4-(tert-butyl)phenyl)-4-oxo-4,5-dihydro-3H-1-thia-3,5,8-triazaacenaphthylene-2-carboxamide]: the “BTK_I_binding pIC50” value was 5.5.

For the compound `O=C(N[C@@H]1CCCNC1)c1sc2nccc3c2c1NC(=O)N3c1cccc(Cl)c1` [Example 336, (R)-5-(3-Chlorophenyl)-4-oxo-N-(piperidin-3-yl)-4,5-dihydro-3H-1-thia-3,5,8-triazaacenaphthylene-2-carboxamide], the “BTK_I_binding pIC50” value turned out to be 5.4.
